Assay results: PMC6862250, “Lipophilicity Determination of Quaternary (Fluoro)Quinolones by Chromatographic and Theoretical Approaches” (International Journal of Molecular Sciences, 2019)

How the values were obtained:
Format in all cases: physicochemical
[1] = MEKC lipophilicity (SDS micelles, pH 7.4); details: 50 mM SDS, HEPES/TRIS buffer pH 7.4, 25 °C
Procedure: All MEKC experiments were carried out with a P/ACE MDQ plus system (Sciex, Framingham, MA, USA) equipped with photodiode array detector (PDA) and controlled by 32 Karat software (version 10.2). The uncoated fused silica capillaries (50 µm i.d., Polymicro Technologies, West Yorkshire, UK) of 60 cm total length and 50.2 cm effective length were used. Prior to analysis, the capillary was rinsed with 0.1 M NaOH for 30 min, ultrapure water for 10 min, and background electrolyte (BGE) for 30 min. After each analysis, the capillary was conditioned with BGE for 2 min. The applied pressure for all rinsing operations was 345 kPa. The analytes were dissolved in BGE at concentration of 100 µg/mL with addition of quinine (micelles marker). As electroosmotic flow (EOF) marker, DMSO was used. The samples were hydrodynamically injected at 35 kPa for 5 s. The separations were performed by applying voltage of 20 kV with positive polarity and constant temperatures at 25 ± 0.1 °C. The BGE consisted of aqueous solution of 50 mM SDS and 120 mM HEPES /100 mM TRIS buffer of pH 7.4. The BGE was prepared each working day by dilution of stock solution. Detection was carried out at 200 and 280 nm with 8 Hz probing frequency. The logarithm of retention factor logk was calculated according to the equation introduced by Terabe and co-workers:(10) logkMEKC=log(tR−tEOF/tEOF(1−tR/tMC)) The established logk parameters are summarized in Table 2.

[2] = RP-TLC lipophilicity, silica gel C18, methanol-water; details: for C 0: RP-TLC silica gel C18, C0 = −RM^0/b; for PC1: RP-TLC silica gel C18, first principal component of RM values, contains 86.92% of information; for mRM: RP-TLC silica gel C18, mean value of RM; for R M ^0: RP-TLC silica gel C18, methanol-water 40 to 70% (v/v), intercept of Soczewiński–Wachtmeister equation; for b: RP-TLC silica gel C18, slope of Soczewiński–Wachtmeister equation
Procedure: (§1) The ready-to-use TLC glass plates covered by octadecyl(C18)- and octyl(C8)-modified TLC silica layers were purchased from Merck (Darmstadt, Germany). Stock solutions (5 µL) of the analytes were spotted manually on the plates with the use of a micropipette from Brand (Wertheim, Germany). The mobile phases were prepared by mixing appropriate volumes of pure organic solvents and water (in step gradient by 10% (v/v)), in the following proportions: (a) methanol–water ranging from 30 to 70% (v/v), in the case of C8-bonded silica gel stationary phase; and (b) methanol–water ranging from 40 to 70% (v/v), in the case of C18-bonded silica gel stationary phase.
(§2) Before analysis, the chromatographic chamber (Twin Trough Chambers from CAMAG Philadelphia, USA) was saturated for 20 min. All TLC experiments were performed at room temperature (22 ± 2 °C). Chromatograms were developed using the ascending technique to a distance of 8 cm. The investigated substances were visualized under UV light at λ = 366 nm by CAMAG UV Lamp 4 and the Viewing Box 4 (Philadelphia, USA). […] The obtained retardation factors (RF) were collected in the Supplementary data sheets. The retention parameter, RM, was calculated for each compound according to the Bate-Smith and Westall formula: (7) RM=log(1/RF−1) and listed in Table S2. Next, the Soczewiński–Wachtmeister’s equation: RM = RM^0 + bC(8) was used in order to determine the basic lipophilic RP-TLC parameter RM^0 as well as commonly used hydrophobic constants m. Soczewiński–Wachtmeister’s equation presented a linear relationship between concentration of the organic solvent in mobile phase (C) and RM value. Moreover, mean value of RM was used for lipophilicity assessments.
(§3) Furthermore, C0 RP-TLC lipophilicity parameter, introduced by Bieganowska, has been calculated according to the formula:(9) C0=−RM^0/b.
(§4) The C0 parameter corresponds to the parameter φ0, previously proposed for the HPLC. This parameter relates to the concentration of the organic component in the mobile phase for which the distribution of the analyzed substance between the mobile and stationary phase is equal (1:1).
(§5) Also, the principal component analysis (PCA) was applied in order to extract information regarding the lipophilicity of solutes and formulate them as the first principal component (PC1). Calculation data matrixes included RM values of solutes for each modifier concentration in the mobile phase.

[3] = RP-TLC lipophilicity, silica gel C8, methanol-water; details: for C 0: RP-TLC silica gel C8, C0 = −RM^0/b; for PC1: RP-TLC silica gel C8, first principal component of RM values, contains 83.57% of information; for mRM: RP-TLC silica gel C8, mean value of RM; for R M ^0: RP-TLC silica gel C8, methanol-water 30 to 70% (v/v), intercept of Soczewiński–Wachtmeister equation; for b: RP-TLC silica gel C8, slope of Soczewiński–Wachtmeister equation
Procedure: as §1, §2, §3, §4, §5

| logk [1] | C 0 [2] | PC1 [2] | mRM [2] | R M ^0 [2] | b [2] | C 0 [3] | PC1 [3] | mRM [3] | R M ^0 [3] | b [3] | logk ([1]; listed as enoxacin) | Compound |
| --- | --- | --- | --- | --- | --- | --- | --- | --- | --- | --- | --- | --- |
| 0.103 | 1.24 | −2.34 | 1.40 | 2.54 | −2.06 | 1.27 | −5.56 | 1.47 | 2.43 | −1.90 | – | CCn1cc(C(=O)O)c(=O)c2cc(F)c(N3CCNCC3)cc21 [Compound 18, reference compound] |
| −0.408 | 0.88 | 1.74 | 0.82 | 2.18 | −2.47 | 0.92 | −0.64 | 0.83 | 1.82 | −1.97 | – | COc1c(N2CC[N+]3(CN4C(C)=CC(C)=C(C(=O)O)C4=N3)C(C)C2)c(F)cc2c(=O)c(C(=O)O)cn(C3CC3)c12.[Cl-] (stereo not drawn) [Compound 13] |
| −0.321 | 0.94 | 2.36 | 0.72 | 1.74 | −1.85 | 0.94 | −0.58 | 0.84 | 1.79 | −1.90 | – | CC1=CC(C)=C(C(=O)O)C2=N[N+]3(CCN(c4cc5c(cc4F)c(=O)c(C(=O)O)cn5C4CC4)CC3)CN12.[Cl-] [Compound 4] |
| 0.156 | 1.37 | −3.86 | 1.62 | 2.70 | −1.98 | 1.23 | −5.38 | 1.45 | 2.45 | −2.00 | 0.1564 | CCn1cc(C(=O)O)c(=O)c2cc(F)c(N3CCNCC3)nc21 [Compound 23, enoxacin, reference compound] |
| −0.479 | 0.98 | 1.75 | 0.81 | 1.86 | −1.91 | 0.97 | −0.11 | 0.79 | 1.62 | −1.66 | – | CCn1cc(C(=O)O)c(=O)c2cc(F)c(N3CC[N+]4(CN5C(C)=CC(C)=C(C(=O)O)C5=N4)C(C)C3)c(F)c21.[Cl-] (stereo not drawn) [Compound 9] |
| −0.070 | 0.88 | 0.34 | 1.02 | 2.75 | −3.13 | 0.86 | −3.48 | 1.15 | 2.74 | −3.17 | – | CC1CN(c2c(F)c(N)c3c(=O)c(C(=O)O)cn(C4CC4)c3c2F)CC(C)[N+]12CN1C(=N2)C(C(=O)O)=Cc2ccccc21.[Cl-] (stereo not drawn) [Compound 3] |
| 0.101 | 1.06 | −1.63 | 1.31 | 2.69 | −2.55 | 0.95 | −4.29 | 1.26 | 2.68 | −2.83 | – | COc1c(N2CCNC(C)C2)c(F)cc2c(=O)c(C(=O)O)cn(C3CC3)c12 (stereo not drawn) [Compound 21, reference compound] |
